Reference: publication PMC3914206

How the values were obtained:
panel of 442 kinases [1] = target: T1, panel of 442 kinases (Homo sapiens, UniProt Q9NRM7); format: binding; conditions: Compound Concentration 10 µM
T1 construct: purchased KINOMEscan
T1 sequence (Q9NRM7 1-1088): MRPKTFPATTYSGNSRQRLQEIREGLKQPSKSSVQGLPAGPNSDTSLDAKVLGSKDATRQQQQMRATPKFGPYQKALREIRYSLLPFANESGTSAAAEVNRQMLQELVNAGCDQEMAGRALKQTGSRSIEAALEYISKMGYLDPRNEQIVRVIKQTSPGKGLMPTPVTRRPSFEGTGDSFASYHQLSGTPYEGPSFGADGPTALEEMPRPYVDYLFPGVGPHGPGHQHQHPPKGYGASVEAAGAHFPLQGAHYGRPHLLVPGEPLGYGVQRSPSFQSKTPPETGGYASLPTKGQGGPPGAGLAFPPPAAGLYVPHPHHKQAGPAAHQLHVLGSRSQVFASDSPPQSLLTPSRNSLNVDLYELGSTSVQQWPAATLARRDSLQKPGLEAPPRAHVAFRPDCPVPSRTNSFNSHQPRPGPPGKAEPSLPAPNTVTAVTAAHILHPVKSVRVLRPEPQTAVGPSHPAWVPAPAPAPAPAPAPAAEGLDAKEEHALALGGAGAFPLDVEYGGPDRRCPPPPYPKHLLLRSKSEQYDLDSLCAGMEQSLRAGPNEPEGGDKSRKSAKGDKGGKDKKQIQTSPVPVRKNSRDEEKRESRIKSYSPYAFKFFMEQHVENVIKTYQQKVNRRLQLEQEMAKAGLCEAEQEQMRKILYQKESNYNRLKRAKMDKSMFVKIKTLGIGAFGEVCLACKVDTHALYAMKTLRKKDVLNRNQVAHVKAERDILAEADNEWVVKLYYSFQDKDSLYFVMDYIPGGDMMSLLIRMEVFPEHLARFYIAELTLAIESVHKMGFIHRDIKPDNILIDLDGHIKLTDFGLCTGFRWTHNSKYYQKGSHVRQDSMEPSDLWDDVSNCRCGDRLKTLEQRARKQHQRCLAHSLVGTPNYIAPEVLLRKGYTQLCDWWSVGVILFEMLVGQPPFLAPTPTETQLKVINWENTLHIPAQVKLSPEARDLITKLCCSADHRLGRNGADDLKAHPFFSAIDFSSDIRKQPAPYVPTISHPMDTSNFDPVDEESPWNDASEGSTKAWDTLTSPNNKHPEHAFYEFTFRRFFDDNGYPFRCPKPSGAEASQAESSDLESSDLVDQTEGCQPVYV
Source text: (§1) We assessed the selectivity of members of this scaffold using the KINOMEscan methodology across a near comprehensive panel of 442 kinases [[18,27]].

panel of 442 kinases [2] = target: T2, panel of 442 kinases (Homo sapiens, UniProt P57059); format: binding; conditions: kinase SIK; compound concentration 10 µM
T2 construct: purchased KINOMEscan
Source text: as §1

T2 sequence (P57059 whole entry): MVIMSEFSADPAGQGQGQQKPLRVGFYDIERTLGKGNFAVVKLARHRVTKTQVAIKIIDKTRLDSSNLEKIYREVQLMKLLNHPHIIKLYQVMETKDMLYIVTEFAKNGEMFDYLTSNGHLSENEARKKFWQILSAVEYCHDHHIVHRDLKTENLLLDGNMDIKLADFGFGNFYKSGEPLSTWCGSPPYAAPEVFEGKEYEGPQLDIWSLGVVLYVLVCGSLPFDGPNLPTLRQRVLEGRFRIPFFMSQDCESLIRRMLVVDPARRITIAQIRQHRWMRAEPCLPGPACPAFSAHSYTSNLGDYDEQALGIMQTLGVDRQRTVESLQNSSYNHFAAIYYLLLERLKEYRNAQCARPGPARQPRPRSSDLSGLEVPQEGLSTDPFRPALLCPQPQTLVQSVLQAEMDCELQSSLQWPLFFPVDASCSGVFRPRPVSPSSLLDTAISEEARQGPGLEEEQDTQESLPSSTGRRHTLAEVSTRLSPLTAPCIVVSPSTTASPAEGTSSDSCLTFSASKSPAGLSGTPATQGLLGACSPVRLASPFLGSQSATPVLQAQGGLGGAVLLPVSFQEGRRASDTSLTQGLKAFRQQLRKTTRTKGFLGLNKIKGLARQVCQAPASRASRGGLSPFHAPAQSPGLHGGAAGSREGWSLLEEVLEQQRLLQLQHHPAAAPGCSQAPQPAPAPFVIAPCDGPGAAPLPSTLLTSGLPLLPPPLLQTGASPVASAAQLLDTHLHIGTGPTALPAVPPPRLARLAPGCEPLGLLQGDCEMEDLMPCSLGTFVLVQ

Structure (SMILES)	KINOMEscan: LATS2 (panel of 442 kinases [1])	% Ctrl, SIK (panel of 442 kinases [2])
COc1cc(C(=O)N2CCC(N3CCN(C)CC3)CC2)ccc1Nc1ncc2c(n1)N(C)c1ccccc1C(=O)N2C [15 (LRRK2-IN-1)]	95	77 % Ctrl
CCOc1cc(C(=O)N2CCC(N3CCN(C)CC3)CC2)ccc1Nc1ncc2c(n1)N(C1CCCC1)c1ccccc1C(=O)N2C [Compound 26]	93	100 % Ctrl
COc1cc(C(=O)N2CCC(N3CCN(C)CC3)CC2)ccc1Nc1ncc2c(n1)N1CCc3cccc(c31)C(=O)N2C [Compound 24]		90 % Ctrl
COc1cc(C(=O)N2CCC(N3CCN(C)CC3)CC2)ccc1Nc1ncc2c(n1)N(C1CCCC1)c1ccccc1C(=O)N2C [Compound 25, 11-cyclopentyl-2-((2-methoxy-4-(4-(4-methylpiperazin-1-yl)piperidine-1-carbonyl)phenyl)amino)-5-methyl-5H-benzo[e]pyrimido[5,4-b][1,4]diazepin-6(11H)-one]	92	98 % Ctrl
